Results: patent US9113629B2, “4-amino-6-(4-substituted-phenyl)-picolinates and 6-amino-2-(4-substituted-phenyl)-pyrimidine-4-carboxylates and their use as herbicides” (DOW AGROSCIENCES LLC, priority 2013, dated 2015)

test system: Key Broadleaf Weed and Crop Species; assay: Post-emergent Test II herbicidal activity (Table 5); type: in vivo; conditions: post-emergence, 336 h; ABUTH: velvetleaf (Abutilon theophrasti); 70 g ai/ha; post-emergent; 14 days after application; read-out: Visual Growth Reduction (%) 14 Days After Application ABUTH
Procedure, shortened: (§1)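 Visual injury ratings (0 = no injury, 100 = complete kill) were taken 14 d after treatment, relative to untreated plants. Seedlings at the first–second true leaf stage received overhead spray at 187 L/ha; the highest rate was serially diluted to ½×, ¼×, ⅛× and 1/16×.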

SMILES | pest or weed control at 70 g/ha
Cc1c(-c2ccc(I)cc2)nc(C(=O)O)c(Cl)c1N [Compound 116, 4-Amino-3-chloro-6-(4-iodophenyl)-5-methylpicolinic acid] | 95 to 100%

same assay, conditions: post-emergence, 336 h; ABUTH: velvetleaf (Abutilon theophrasti); 140 g ai/ha; post-emergent; 14 days after application; read-out: Visual Growth Reduction (%) 14 Days After Application ABUTH

SMILES | pest or weed control at 140 g/ha
Cc1c(-c2ccc(I)cc2)nc(C(=O)O)c(Cl)c1N [Compound 116, 4-Amino-3-chloro-6-(4-iodophenyl)-5-methylpicolinic acid] | 95 to 100%

same assay, conditions: post-emergence, 336 h; AMARE: redroot pigweed (Amaranthus retroflexus); 70 g ai/ha; post-emergent; 14 days after application; read-out: Visual Growth Reduction (%) 14 Days After Application AMARE

SMILES | pest or weed control at 70 g/ha
Cc1c(-c2ccc(I)cc2)nc(C(=O)O)c(Cl)c1N [Compound 116, 4-Amino-3-chloro-6-(4-iodophenyl)-5-methylpicolinic acid] | 75 to 84%

same assay, conditions: post-emergence, 336 h; AMARE: redroot pigweed (Amaranthus retroflexus); 140 g ai/ha; post-emergent; 14 days after application; read-out: Visual Growth Reduction (%) 14 Days After Application AMARE

SMILES | pest or weed control at 140 g/ha
Cc1c(-c2ccc(I)cc2)nc(C(=O)O)c(Cl)c1N [Compound 116, 4-Amino-3-chloro-6-(4-iodophenyl)-5-methylpicolinic acid] | 85 to 94%

same assay, conditions: post-emergence, 336 h; BRSNN: oilseed-rape, canola (Brassica napus); 70 g ai/ha; post-emergent; 14 days after application; read-out: Visual Growth Reduction (%) 14 Days After Application BRSNN

SMILES | pest or weed control at 70 g/ha
Cc1c(-c2ccc(I)cc2)nc(C(=O)O)c(Cl)c1N [Compound 116, 4-Amino-3-chloro-6-(4-iodophenyl)-5-methylpicolinic acid] | 85 to 94%

same assay, conditions: post-emergence, 336 h; BRSNN: oilseed-rape, canola (Brassica napus); 140 g ai/ha; post-emergent; 14 days after application; read-out: Visual Growth Reduction (%) 14 Days After Application BRSNN

SMILES | pest or weed control at 140 g/ha
Cc1c(-c2ccc(I)cc2)nc(C(=O)O)c(Cl)c1N [Compound 116, 4-Amino-3-chloro-6-(4-iodophenyl)-5-methylpicolinic acid] | 95 to 100%

same assay, conditions: post-emergence, 336 h; CHEAL: lambsquarters (Chenopodium album); 70 g ai/ha; post-emergent; 14 days after application; read-out: Visual Growth Reduction (%) 14 Days After Application CHEAL

SMILES | pest or weed control at 70 g/ha
Cc1c(-c2ccc(I)cc2)nc(C(=O)O)c(Cl)c1N [Compound 116, 4-Amino-3-chloro-6-(4-iodophenyl)-5-methylpicolinic acid] | 85 to 94%

same assay, conditions: post-emergence, 336 h; CHEAL: lambsquarters (Chenopodium album); 140 g ai/ha; post-emergent; 14 days after application; read-out: Visual Growth Reduction (%) 14 Days After Application CHEAL

SMILES | pest or weed control at 140 g/ha
Cc1c(-c2ccc(I)cc2)nc(C(=O)O)c(Cl)c1N [Compound 116, 4-Amino-3-chloro-6-(4-iodophenyl)-5-methylpicolinic acid] | 85 to 94%

same assay, conditions: post-emergence, 336 h; EPHHL: wild poinsettia (Euphorbia heterophylla); 70 g ai/ha; post-emergent; 14 days after application; read-out: Visual Growth Reduction (%) 14 Days After Application EPHHL

SMILES | pest or weed control at 70 g/ha
Cc1c(-c2ccc(I)cc2)nc(C(=O)O)c(Cl)c1N [Compound 116, 4-Amino-3-chloro-6-(4-iodophenyl)-5-methylpicolinic acid] | 0 to 29%

same assay, conditions: post-emergence, 336 h; EPHHL: wild poinsettia (Euphorbia heterophylla); 140 g ai/ha; post-emergent; 14 days after application; read-out: Visual Growth Reduction (%) 14 Days After Application EPHHL

SMILES | pest or weed control at 140 g/ha
Cc1c(-c2ccc(I)cc2)nc(C(=O)O)c(Cl)c1N [Compound 116, 4-Amino-3-chloro-6-(4-iodophenyl)-5-methylpicolinic acid] | 0 to 29%

same assay, conditions: post-emergence, 336 h; HELAN: sunflower (Helianthus annuus); 70 g ai/ha; post-emergent; 14 days after application; read-out: Visual Growth Reduction (%) 14 Days After Application HELAN

SMILES | pest or weed control at 70 g/ha
Cc1c(-c2ccc(I)cc2)nc(C(=O)O)c(Cl)c1N [Compound 116, 4-Amino-3-chloro-6-(4-iodophenyl)-5-methylpicolinic acid] | 95 to 100%

same assay, conditions: post-emergence, 336 h; HELAN: sunflower (Helianthus annuus); 140 g ai/ha; post-emergent; 14 days after application; read-out: Visual Growth Reduction (%) 14 Days After Application HELAN

SMILES | pest or weed control at 140 g/ha
Cc1c(-c2ccc(I)cc2)nc(C(=O)O)c(Cl)c1N [Compound 116, 4-Amino-3-chloro-6-(4-iodophenyl)-5-methylpicolinic acid] | 95 to 100%

same assay, conditions: post-emergence, 336 h; VIOTR: wild pansy (Viola tricolor); 70 g ai/ha; post-emergent; 14 days after application; read-out: Visual Growth Reduction (%) 14 Days After Application VIOTR

SMILES | pest or weed control at 70 g/ha
Cc1c(-c2ccc(I)cc2)nc(C(=O)O)c(Cl)c1N [Compound 116, 4-Amino-3-chloro-6-(4-iodophenyl)-5-methylpicolinic acid] | 0 to 29%

same assay, conditions: post-emergence, 336 h; VIOTR: wild pansy (Viola tricolor); 140 g ai/ha; post-emergent; 14 days after application; read-out: Visual Growth Reduction (%) 14 Days After Application VIOTR

SMILES | pest or weed control at 140 g/ha
Cc1c(-c2ccc(I)cc2)nc(C(=O)O)c(Cl)c1N [Compound 116, 4-Amino-3-chloro-6-(4-iodophenyl)-5-methylpicolinic acid] | 0 to 29%

test system: Key Grass and Sedge Weeds as well as Grass Crops; assay: Post-emergent Test II herbicidal activity (Table 6); type: in vivo; conditions: Triticum aestivum, post-emergence, 336 h, TRZSS (wheat), application rate 70 g ai/ha, read-out: Visual Growth Reduction (%) 14 Days After Application, TRZSS
Procedure, shortened: as §1

SMILES | pest or weed control at 70 g/ha
Cc1c(-c2ccc(I)cc2)nc(C(=O)O)c(Cl)c1N [Compound 116, 4-Amino-3-chloro-6-(4-iodophenyl)-5-methylpicolinic acid] | 45 to 59%

same assay, conditions: Triticum aestivum, post-emergence, 336 h, TRZSS (wheat), application rate 140 g ai/ha, read-out: Visual Growth Reduction (%) 14 Days After Application, TRZSS

SMILES | pest or weed control at 140 g/ha
Cc1c(-c2ccc(I)cc2)nc(C(=O)O)c(Cl)c1N [Compound 116, 4-Amino-3-chloro-6-(4-iodophenyl)-5-methylpicolinic acid] | 45 to 59%

same assay, conditions: post-emergence, 336 h, CYPES: yellow nutsedge (Cyperus esculentus), application rate 70 g ai/ha, read-out: Visual Growth Reduction (%) 14 Days After Application, CYPES

SMILES | pest or weed control at 70 g/ha
Cc1c(-c2ccc(I)cc2)nc(C(=O)O)c(Cl)c1N [Compound 116, 4-Amino-3-chloro-6-(4-iodophenyl)-5-methylpicolinic acid] | 0 to 29%

same assay, conditions: post-emergence, 336 h, CYPES: yellow nutsedge (Cyperus esculentus), application rate 140 g ai/ha, read-out: Visual Growth Reduction (%) 14 Days After Application, CYPES

SMILES | pest or weed control at 140 g/ha
Cc1c(-c2ccc(I)cc2)nc(C(=O)O)c(Cl)c1N [Compound 116, 4-Amino-3-chloro-6-(4-iodophenyl)-5-methylpicolinic acid] | 0 to 29%

same assay, conditions: post-emergence, 336 h, DIGSA: crabgrass (Digitaria sanguinalis), application rate 70 g ai/ha, read-out: Visual Growth Reduction (%) 14 Days After Application, DIGSA

SMILES | pest or weed control at 70 g/ha
Cc1c(-c2ccc(I)cc2)nc(C(=O)O)c(Cl)c1N [Compound 116, 4-Amino-3-chloro-6-(4-iodophenyl)-5-methylpicolinic acid] | 45 to 59%

same assay, conditions: post-emergence, 336 h, DIGSA: crabgrass (Digitaria sanguinalis), application rate 140 g ai/ha, read-out: Visual Growth Reduction (%) 14 Days After Application, DIGSA

SMILES | pest or weed control at 140 g/ha
Cc1c(-c2ccc(I)cc2)nc(C(=O)O)c(Cl)c1N [Compound 116, 4-Amino-3-chloro-6-(4-iodophenyl)-5-methylpicolinic acid] | 60 to 74%

same assay, conditions: post-emergence, 336 h, ECHCG: barnyardgrass (Echinochloa crus-galli), application rate 70 g ai/ha, read-out: Visual Growth Reduction (%) 14 Days After Application, ECHCG

SMILES | pest or weed control at 70 g/ha
Cc1c(-c2ccc(I)cc2)nc(C(=O)O)c(Cl)c1N [Compound 116, 4-Amino-3-chloro-6-(4-iodophenyl)-5-methylpicolinic acid] | 45 to 59%

same assay, conditions: post-emergence, 336 h, ECHCG: barnyardgrass (Echinochloa crus-galli), application rate 140 g ai/ha, read-out: Visual Growth Reduction (%) 14 Days After Application, ECHCG

SMILES | pest or weed control at 140 g/ha
Cc1c(-c2ccc(I)cc2)nc(C(=O)O)c(Cl)c1N [Compound 116, 4-Amino-3-chloro-6-(4-iodophenyl)-5-methylpicolinic acid] | 60 to 74%

same assay, conditions: post-emergence, 336 h, ORYSA: rice (Oryza sativa), application rate 70 g ai/ha, read-out: Visual Growth Reduction (%) 14 Days After Application, ORYSA

SMILES | pest or weed control at 70 g/ha
Cc1c(-c2ccc(I)cc2)nc(C(=O)O)c(Cl)c1N [Compound 116, 4-Amino-3-chloro-6-(4-iodophenyl)-5-methylpicolinic acid] | 0 to 29%

same assay, conditions: post-emergence, 336 h, ORYSA: rice (Oryza sativa), application rate 140 g ai/ha, read-out: Visual Growth Reduction (%) 14 Days After Application, ORYSA

SMILES | pest or weed control at 140 g/ha
Cc1c(-c2ccc(I)cc2)nc(C(=O)O)c(Cl)c1N [Compound 116, 4-Amino-3-chloro-6-(4-iodophenyl)-5-methylpicolinic acid] | 0 to 29%

same assay, conditions: post-emergence, 336 h, SETFA: giant foxtail (Setaria faberi), application rate 70 g ai/ha, read-out: Visual Growth Reduction (%) 14 Days After Application, SETFA

SMILES | pest or weed control at 70 g/ha
Cc1c(-c2ccc(I)cc2)nc(C(=O)O)c(Cl)c1N [Compound 116, 4-Amino-3-chloro-6-(4-iodophenyl)-5-methylpicolinic acid] | 45 to 59%

same assay, conditions: post-emergence, 336 h, SETFA: giant foxtail (Setaria faberi), application rate 140 g ai/ha, read-out: Visual Growth Reduction (%) 14 Days After Application, SETFA

SMILES | pest or weed control at 140 g/ha
Cc1c(-c2ccc(I)cc2)nc(C(=O)O)c(Cl)c1N [Compound 116, 4-Amino-3-chloro-6-(4-iodophenyl)-5-methylpicolinic acid] | 60 to 74%

same assay, conditions: post-emergence, 336 h, SORVU: grain sorghum (Sorghum vulgare), application rate 70 g ai/ha, read-out: Visual Growth Reduction (%) 14 Days After Application, SORVU

SMILES | pest or weed control at 70 g/ha
Cc1c(-c2ccc(I)cc2)nc(C(=O)O)c(Cl)c1N [Compound 116, 4-Amino-3-chloro-6-(4-iodophenyl)-5-methylpicolinic acid] | 30 to 44%

same assay, conditions: post-emergence, 336 h, SORVU: grain sorghum (Sorghum vulgare), application rate 140 g ai/ha, read-out: Visual Growth Reduction (%) 14 Days After Application, SORVU

SMILES | pest or weed control at 140 g/ha
Cc1c(-c2ccc(I)cc2)nc(C(=O)O)c(Cl)c1N [Compound 116, 4-Amino-3-chloro-6-(4-iodophenyl)-5-methylpicolinic acid] | 45 to 59%

same assay, conditions: post-emergence, 336 h, ZEAMX: maize, corn (Zea mays), application rate 70 g ai/ha, read-out: Visual Growth Reduction (%) 14 Days After Application, ZEAMX

SMILES | pest or weed control at 70 g/ha
Cc1c(-c2ccc(I)cc2)nc(C(=O)O)c(Cl)c1N [Compound 116, 4-Amino-3-chloro-6-(4-iodophenyl)-5-methylpicolinic acid] | 45 to 59%

same assay, conditions: post-emergence, 336 h, ZEAMX: maize, corn (Zea mays), application rate 140 g ai/ha, read-out: Visual Growth Reduction (%) 14 Days After Application, ZEAMX

SMILES | pest or weed control at 140 g/ha
Cc1c(-c2ccc(I)cc2)nc(C(=O)O)c(Cl)c1N [Compound 116, 4-Amino-3-chloro-6-(4-iodophenyl)-5-methylpicolinic acid] | 60 to 74%

test system: not given; assay: not given; conditions: not given

melting point | SMILES
179.5 to 181 °C | Cc1c(-c2ccc(I)cc2)nc(C(=O)O)c(Cl)c1N [Compound 116, 4-Amino-3-chloro-6-(4-iodophenyl)-5-methylpicolinic acid]
